Results on two molecules are retold here after paper PMC5513037, “Examining the influence of specificity ligands and ATP-competitive ligands on the overall effectiveness of bivalent kinase inhibitors” (Proteome Science, 2017).

The target of assay [1] is PSKH1 (Homo sapiens, UniProt P11801). As to the kind of experiment: biochemical.
Description: (§2) Data were visualized for further analysis using Spotfire DXP.
The target of assay [2] is T1, SCYL1 (Homo sapiens, UniProt Q96KG9).
T1 sequence (Q96KG9 1-808): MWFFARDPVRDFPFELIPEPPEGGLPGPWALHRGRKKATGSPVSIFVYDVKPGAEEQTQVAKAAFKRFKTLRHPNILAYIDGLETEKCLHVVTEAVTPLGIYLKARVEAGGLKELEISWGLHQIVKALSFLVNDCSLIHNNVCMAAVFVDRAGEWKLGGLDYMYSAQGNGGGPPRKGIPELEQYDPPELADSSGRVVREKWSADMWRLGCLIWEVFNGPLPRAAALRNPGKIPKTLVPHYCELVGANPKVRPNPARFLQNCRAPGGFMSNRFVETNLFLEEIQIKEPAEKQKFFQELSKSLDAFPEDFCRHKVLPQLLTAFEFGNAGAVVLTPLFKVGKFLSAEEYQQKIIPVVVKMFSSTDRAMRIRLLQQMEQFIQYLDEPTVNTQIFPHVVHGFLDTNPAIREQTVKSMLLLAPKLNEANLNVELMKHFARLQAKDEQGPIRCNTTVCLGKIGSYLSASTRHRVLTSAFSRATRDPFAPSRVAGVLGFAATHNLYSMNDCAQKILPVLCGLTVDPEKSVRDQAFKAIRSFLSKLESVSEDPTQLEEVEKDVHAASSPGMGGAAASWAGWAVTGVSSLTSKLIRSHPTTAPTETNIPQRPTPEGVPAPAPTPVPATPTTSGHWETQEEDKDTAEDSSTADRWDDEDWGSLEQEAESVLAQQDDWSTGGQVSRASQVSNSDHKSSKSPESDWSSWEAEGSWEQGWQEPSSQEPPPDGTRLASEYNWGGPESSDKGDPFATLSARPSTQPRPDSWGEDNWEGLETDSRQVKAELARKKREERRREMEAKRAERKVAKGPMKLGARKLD
Nature of the assay: biochemical.
Description: as §2

For assay [3], the target named is T2, FAM20B (Homo sapiens, UniProt O75063).
T2 construct: endogenous in cells; host or cells: K562
T2 sequence (O75063 1-409): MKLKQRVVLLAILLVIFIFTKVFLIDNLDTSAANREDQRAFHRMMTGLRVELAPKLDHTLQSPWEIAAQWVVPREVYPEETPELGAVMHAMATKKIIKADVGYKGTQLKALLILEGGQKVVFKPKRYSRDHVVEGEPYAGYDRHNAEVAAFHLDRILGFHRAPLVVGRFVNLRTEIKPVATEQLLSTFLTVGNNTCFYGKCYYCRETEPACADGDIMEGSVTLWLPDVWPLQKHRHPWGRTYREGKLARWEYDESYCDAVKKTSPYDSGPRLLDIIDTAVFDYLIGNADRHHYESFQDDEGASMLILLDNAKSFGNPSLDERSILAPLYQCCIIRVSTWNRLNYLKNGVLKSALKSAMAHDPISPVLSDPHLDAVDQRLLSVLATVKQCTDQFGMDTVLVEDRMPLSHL
Nature of the assay: KAM-matrix competition in K562 lysate. It is filed as binding. As to the method: (§1) Supplement 12953_2017_125_MOESM1_ESM.zip/MS_Supp Info.xlsx, sheet "KAM" | column: 10 uM KAM; 1 uM KAM; 0.1 uM KAM; 0.01 uM KAM; 0.001 uM KAM; RB50

Assay [4] deals with T3, AURKB (Homo sapiens, UniProt Q96GD4).
T3 construct: endogenous in cells; host or cells: K562
T3 sequence (Q96GD4 whole entry): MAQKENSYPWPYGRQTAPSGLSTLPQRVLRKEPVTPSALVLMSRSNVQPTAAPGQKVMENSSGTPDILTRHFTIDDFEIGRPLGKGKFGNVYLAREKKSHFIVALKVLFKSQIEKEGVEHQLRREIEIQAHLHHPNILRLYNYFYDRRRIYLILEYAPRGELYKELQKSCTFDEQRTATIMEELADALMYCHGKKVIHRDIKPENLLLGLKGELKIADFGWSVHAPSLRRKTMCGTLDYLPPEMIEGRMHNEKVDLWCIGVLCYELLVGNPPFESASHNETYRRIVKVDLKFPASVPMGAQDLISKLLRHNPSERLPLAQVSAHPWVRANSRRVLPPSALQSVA
As to the kind of experiment: KAM-matrix competition in K562 lysate. It is filed as binding. The protocol: as §1

Assay [5] addresses T4, ATR (Homo sapiens, UniProt Q13535).
T4 construct: endogenous in cells; host or cells: K562
Nature of the assay: KAM-matrix competition in K562 lysate. It is filed as binding. The protocol: as §1

Assay [6] has as its target T5, STK16 (Homo sapiens, UniProt O75716).
T5 construct: K562 cell pellets were thawed on ice and resuspended in cold Lysis buffer; endogenous in cells; host or cells: K562
As to the kind of experiment: KAM-matrix competition in K562 lysate. It is filed as binding. As to the method:
as §1

For assay [7], the target named is T6, LIMK2 (Homo sapiens, UniProt P53671).
T6 construct: endogenous in cells; host or cells: K562
T6 sequence (P53671 whole entry): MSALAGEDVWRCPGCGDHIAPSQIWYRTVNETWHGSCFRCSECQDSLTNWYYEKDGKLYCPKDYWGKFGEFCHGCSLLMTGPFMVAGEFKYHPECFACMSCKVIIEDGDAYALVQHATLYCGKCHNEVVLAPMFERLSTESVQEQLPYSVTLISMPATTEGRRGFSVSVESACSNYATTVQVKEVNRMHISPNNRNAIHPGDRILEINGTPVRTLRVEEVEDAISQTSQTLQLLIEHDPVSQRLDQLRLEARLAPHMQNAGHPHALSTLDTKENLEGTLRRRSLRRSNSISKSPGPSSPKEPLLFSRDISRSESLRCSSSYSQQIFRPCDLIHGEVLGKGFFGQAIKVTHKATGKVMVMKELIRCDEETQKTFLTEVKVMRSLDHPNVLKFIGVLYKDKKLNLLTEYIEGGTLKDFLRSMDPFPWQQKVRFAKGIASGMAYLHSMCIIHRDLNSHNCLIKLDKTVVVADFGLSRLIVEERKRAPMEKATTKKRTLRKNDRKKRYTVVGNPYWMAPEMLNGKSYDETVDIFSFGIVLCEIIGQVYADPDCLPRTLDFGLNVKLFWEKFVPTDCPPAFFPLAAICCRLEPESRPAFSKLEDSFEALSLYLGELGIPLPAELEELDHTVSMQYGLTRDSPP
As to the kind of experiment: KAM-matrix competition in K562 lysate. It is filed as binding. As to the method: as §1

The target of assay [8] is T7, STK4 (Homo sapiens, UniProt Q13043).
T7 construct: endogenous in cells; host or cells: K562
T7 sequence (Q13043 1-487): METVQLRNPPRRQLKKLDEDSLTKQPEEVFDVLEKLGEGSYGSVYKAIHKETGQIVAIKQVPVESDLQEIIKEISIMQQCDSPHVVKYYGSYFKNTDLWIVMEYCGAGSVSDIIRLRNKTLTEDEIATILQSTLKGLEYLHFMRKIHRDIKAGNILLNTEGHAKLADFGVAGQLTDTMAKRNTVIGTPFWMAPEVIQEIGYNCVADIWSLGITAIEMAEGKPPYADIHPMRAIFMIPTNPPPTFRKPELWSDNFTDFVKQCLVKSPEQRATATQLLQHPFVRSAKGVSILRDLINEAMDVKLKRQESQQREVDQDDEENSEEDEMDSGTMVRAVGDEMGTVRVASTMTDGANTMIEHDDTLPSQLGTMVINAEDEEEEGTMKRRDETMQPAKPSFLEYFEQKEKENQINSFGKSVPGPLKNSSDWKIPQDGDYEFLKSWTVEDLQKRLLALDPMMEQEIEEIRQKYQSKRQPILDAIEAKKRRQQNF
As to the kind of experiment: KAM-matrix competition in K562 lysate. It is filed as binding. As to the method:
as §1

Assay [9] deals with T8, TAF1L (Homo sapiens, UniProt Q8IZX4).
T8 construct: endogenous in cells; host or cells: K562
As to the kind of experiment: KAM-matrix competition in K562 lysate. It is filed as binding. The note with it: relative to 0 uM KAM = 0. As to the method: Supplement 12953_2017_125_MOESM1_ESM.zip/MS_Supp Info.xlsx, sheet "KAM" | column: 1 uM KAM; 0.01 uM KAM

[10] abbreviates: KAM 0.001-10 uM, read-out: RB50 (the source's name).
Where [11] appears, read: read-out: RB50 (the source's name).
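Throughout, for 0.001 uM KAM: median log10 fold change of treatment over DMSO control.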
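Throughout, for 0.1 uM KAM: median log10 fold change of treatment over DMSO control.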
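Throughout, for 10 uM KAM: median log10 fold change of treatment over DMSO control.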

T5 sequence (O75716 whole entry): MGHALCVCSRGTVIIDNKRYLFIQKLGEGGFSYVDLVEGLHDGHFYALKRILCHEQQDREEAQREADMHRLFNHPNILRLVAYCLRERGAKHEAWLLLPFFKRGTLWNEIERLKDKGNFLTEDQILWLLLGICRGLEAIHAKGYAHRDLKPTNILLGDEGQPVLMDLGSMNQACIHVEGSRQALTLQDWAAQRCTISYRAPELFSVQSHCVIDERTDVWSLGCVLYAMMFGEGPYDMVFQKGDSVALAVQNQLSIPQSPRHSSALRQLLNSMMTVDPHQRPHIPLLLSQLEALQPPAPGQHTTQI
T4 sequence (Q13535 whole entry): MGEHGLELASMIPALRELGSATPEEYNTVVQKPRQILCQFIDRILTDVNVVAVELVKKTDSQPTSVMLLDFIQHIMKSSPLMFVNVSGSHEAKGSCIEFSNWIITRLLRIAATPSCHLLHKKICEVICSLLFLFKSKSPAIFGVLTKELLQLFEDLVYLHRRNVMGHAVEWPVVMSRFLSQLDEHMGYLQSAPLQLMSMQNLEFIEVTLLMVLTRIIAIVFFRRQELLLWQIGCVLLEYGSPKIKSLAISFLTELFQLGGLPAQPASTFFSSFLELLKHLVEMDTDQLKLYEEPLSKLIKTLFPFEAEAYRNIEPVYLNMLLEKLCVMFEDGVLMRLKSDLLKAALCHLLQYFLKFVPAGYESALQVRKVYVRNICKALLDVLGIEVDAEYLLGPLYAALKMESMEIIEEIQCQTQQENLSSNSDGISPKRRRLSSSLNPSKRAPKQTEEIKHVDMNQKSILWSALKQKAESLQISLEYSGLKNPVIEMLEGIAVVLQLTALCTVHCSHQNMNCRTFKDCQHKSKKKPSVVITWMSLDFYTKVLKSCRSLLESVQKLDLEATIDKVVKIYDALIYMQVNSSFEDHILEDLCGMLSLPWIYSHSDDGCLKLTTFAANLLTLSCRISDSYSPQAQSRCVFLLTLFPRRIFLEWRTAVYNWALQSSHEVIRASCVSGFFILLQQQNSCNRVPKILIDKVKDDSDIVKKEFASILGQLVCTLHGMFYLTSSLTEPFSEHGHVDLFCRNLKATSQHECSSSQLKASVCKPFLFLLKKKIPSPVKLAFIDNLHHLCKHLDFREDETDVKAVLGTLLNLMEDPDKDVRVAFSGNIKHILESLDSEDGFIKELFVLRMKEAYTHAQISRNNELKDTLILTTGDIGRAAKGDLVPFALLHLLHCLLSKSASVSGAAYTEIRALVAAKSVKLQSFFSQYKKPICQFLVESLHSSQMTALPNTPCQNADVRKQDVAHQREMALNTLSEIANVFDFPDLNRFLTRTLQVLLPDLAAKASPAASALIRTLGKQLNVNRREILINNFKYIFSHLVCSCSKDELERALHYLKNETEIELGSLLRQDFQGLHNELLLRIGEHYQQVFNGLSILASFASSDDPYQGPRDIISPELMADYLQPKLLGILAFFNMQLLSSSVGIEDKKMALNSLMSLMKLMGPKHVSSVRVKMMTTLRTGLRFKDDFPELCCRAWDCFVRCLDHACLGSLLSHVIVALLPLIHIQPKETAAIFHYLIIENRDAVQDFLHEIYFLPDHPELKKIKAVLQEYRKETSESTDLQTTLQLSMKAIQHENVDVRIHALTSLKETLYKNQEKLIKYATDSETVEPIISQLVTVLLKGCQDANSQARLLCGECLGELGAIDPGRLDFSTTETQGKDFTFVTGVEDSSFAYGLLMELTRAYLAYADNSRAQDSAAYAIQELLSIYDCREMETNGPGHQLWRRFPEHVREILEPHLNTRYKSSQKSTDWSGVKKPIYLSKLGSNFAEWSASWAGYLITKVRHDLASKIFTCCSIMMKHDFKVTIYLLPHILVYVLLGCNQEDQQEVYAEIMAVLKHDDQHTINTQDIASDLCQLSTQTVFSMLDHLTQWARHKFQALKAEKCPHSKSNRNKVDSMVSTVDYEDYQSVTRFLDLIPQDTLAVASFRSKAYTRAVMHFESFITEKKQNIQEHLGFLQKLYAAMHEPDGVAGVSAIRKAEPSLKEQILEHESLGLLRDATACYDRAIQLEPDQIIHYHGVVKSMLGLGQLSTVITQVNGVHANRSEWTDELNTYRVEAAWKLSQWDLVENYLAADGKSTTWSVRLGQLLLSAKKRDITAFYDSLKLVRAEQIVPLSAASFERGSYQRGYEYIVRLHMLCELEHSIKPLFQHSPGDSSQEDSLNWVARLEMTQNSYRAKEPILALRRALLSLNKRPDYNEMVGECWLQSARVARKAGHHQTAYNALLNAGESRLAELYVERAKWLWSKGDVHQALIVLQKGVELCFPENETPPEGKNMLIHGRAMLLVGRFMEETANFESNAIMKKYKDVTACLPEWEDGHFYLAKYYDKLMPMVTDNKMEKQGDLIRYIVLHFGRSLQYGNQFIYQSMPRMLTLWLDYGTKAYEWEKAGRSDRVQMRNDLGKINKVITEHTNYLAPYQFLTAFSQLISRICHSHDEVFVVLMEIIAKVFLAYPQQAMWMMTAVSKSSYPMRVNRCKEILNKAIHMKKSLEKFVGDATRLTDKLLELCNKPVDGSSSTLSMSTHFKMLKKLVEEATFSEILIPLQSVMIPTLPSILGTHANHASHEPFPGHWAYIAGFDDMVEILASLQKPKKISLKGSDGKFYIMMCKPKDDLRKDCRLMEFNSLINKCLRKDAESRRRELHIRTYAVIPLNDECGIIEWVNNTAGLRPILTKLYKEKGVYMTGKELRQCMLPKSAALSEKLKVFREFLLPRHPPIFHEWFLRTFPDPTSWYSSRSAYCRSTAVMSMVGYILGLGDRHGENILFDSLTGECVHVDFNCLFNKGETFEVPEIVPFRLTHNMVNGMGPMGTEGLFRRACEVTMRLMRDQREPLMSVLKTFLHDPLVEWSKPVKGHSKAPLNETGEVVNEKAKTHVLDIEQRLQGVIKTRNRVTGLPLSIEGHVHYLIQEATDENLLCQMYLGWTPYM
T4 sequence (Q8WXE1 whole entry partner): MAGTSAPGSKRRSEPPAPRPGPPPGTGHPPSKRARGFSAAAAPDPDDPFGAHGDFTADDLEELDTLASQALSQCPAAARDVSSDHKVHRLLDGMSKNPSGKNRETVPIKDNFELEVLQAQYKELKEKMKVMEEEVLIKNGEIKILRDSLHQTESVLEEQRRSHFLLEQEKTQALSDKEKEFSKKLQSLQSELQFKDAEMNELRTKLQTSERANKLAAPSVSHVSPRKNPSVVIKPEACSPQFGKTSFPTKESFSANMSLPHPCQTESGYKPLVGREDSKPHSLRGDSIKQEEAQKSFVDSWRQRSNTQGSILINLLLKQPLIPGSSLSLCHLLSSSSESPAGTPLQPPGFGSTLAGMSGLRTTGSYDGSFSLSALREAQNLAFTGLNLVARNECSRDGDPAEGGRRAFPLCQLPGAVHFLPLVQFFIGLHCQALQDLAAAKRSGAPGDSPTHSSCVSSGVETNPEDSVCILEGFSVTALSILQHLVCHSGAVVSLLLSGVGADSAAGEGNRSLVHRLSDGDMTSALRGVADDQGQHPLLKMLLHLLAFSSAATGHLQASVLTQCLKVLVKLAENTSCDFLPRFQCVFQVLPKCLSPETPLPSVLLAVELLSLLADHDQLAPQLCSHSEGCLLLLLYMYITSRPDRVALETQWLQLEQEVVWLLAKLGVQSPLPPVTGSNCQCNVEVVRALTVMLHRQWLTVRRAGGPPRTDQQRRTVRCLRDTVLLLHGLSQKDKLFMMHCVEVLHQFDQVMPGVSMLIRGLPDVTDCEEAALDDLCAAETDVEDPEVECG

As for `Cc1ccc(NC(=O)c2ccc(CN3CCN(C)CC3)cc2)cc1Nc1nccc(-c2cccnc2)n1` [Imatinib], the IC50 in assay [1] and in assay [2] was > 10000 nM throughout.

With `N#CCc1ccc(Nc2nc(NCCCN)cc(Nc3cc(C4CC4)[nH]n3)n2)cc1` [KAM], the IC50 in assay [3] (setting [10]) is > 10000 nM; in assay [4] (setting [11]) it was 137 nM; in assay [5] (setting [10]), > 10000 nM; in [6] (setting [11]), 673 nM; in assay [7] (setting [10]) it was > 10000 nM; in assay [8] (setting [11]), 146 nM. In addition, the “0.001 uM KAM” value in assay [3] (relative to 0 uM KAM = 0) is -0.03245; in assay [5] (relative to 0 uM KAM = 0), -0.04695; in assay [7] (relative to 0 uM KAM = 0), -0.04927. The “0.01 uM KAM” value in assay [3] (relative to 0 uM KAM = 0) was -0.03308; in assay [5] (relative to 0 uM KAM = 0), 0.002576; in assay [7] (relative to 0 uM KAM = 0) it was -0.08611; in [9], 0.1793. For the same molecule, the “0.1 uM KAM” value in [3] (relative to 0 uM KAM = 0) is given as -0.01554; in [5] (relative to 0 uM KAM = 0), -0.08926; in assay [7] (relative to 0 uM KAM = 0), -0.1176. In addition, the “1 uM KAM” value in [3] (relative to 0 uM KAM = 0) was -0.05098; in assay [5] (relative to 0 uM KAM = 0), -0.01418; in [7] (relative to 0 uM KAM = 0), -0.1595; in assay [9], -0.2683. Moreover, the “10 uM KAM” value in [3] (relative to 0 uM KAM = 0) turned out to be 0.1003; in [5] (relative to 0 uM KAM = 0), 0.03196; in assay [7] (relative to 0 uM KAM = 0) it was 0.03187. Moreover, the “median Log10 fold change” value in [4] (0.001 uM KAM) is reported as 0.001732; in assay [4] (0.01 uM KAM), -0.09106; in [4] (0.1 uM KAM), -0.3265; in assay [4] (1 uM KAM), -0.4096; in assay [4] (10 uM KAM), -0.3913; in assay [6] (0.001 uM KAM), -0.0101. The “median Log10 fold change” value in assay [6] (0.01 uM KAM) is given as -0.01878; in [6] (0.1 uM KAM), -0.1698; in assay [6] (1 uM KAM), -0.3768; in assay [6] (10 uM KAM), -0.4318; in assay [8] (0.001 uM KAM), -0.002208; in assay [8] (0.01 uM KAM), -0.01313. The “median Log10 fold change” value in assay [8] (0.1 uM KAM) is -0.2747; in [8] (1 uM KAM) it was -0.6557; in [8] (10 uM KAM), -0.6912.
